Like-named read-outs stand apart in the source and are kept apart here.
How the values were obtained:
[1] = system: GlyR; parameters: method as in Li and Yang, 2001; conditions: ref Li and Yang, 2001; cited from earlier work
[2] = system: homomeric α1 GlyRs; parameters: method as in Uchiyama et al., 1994; conditions: ref Uchiyama et al., 1994; cited from earlier work
[3] = system: human homomeric α1 GlyRs; experiment: Whole-cell patch-clamp of glycine induced currents, modulators in the intracellular buffer, HEK293 cells expressing GlyR α1; assay type: cell-based; conditions: for change of Imax at t = 10 min normalized to t = 0: 0.25 μM intracellular modulator, one-way ANOVA; for effect on EC50: 0.25 μM modulator, t = 0; for desensitization of glycine induced currents / effect on EC50 compared to control / Fraction of desensitizing cells / Imax: 0.5 μM modulator in intracellular buffer; for Fraction of desensitizing cells / Imax: mean ± SEM
Description: (§1) HEK293 cells were grown in 10 cm tissue culture Petri dishes in Eagle minimal essential medium (Sigma-Aldrich Chemie GmbH, Munich, Germany) supplemented with 10% FBS (Invitrogen, Karlsruhe, Germany) and penicillin/streptomycin (Sigma-Aldrich Chemie GmbH, Munich, Germany) at 5% CO2 and 37°C in a water saturated atmosphere. For electrophysiological experiments, cells were plated on poly-L lysine treated glass coverslips in 6 cm dishes. Transfection was performed 1 day after cell passage using Gen-Carrier (Epoch Lifesciences, Sugarland, TX, USA): 1.3 μg of receptor DNA, 1.3 μg of green fluorescent protein DNA, and 2.6 μl GenCarrier were used, following the manufacturer’s instructions. Measurements were performed 2–4 days after transfection. HEK293 cells used for protein expression and internalization analysis were transfected using a modified calcium phosphate precipitation method. In brief, a mixture of plasmid DNA, CaCl2 (2.5M), 0.1× TE buffer and 2× HBS (50 mM HEPES, 12 mM glucose, 10 mM KCl, 280 mM NaCl, 1.5 mM Na2HPO4) was applied onto the cells for 6 h. A GlyR α1 to GlyR β ratio of 1:2 was used for co-expression. Transfection medium was replaced by fresh medium after 6 h. Immunocytochemical stainings were always done 24 h after transfection, biotinylation experiments were performed 48 h after transfection.
(§2) using a nonlinear algorithm in Microcal Origin. Here, Iglycine is the current amplitude at a given glycine concentration, Isat is the maximum current amplitude at saturating concentrations of glycine, EC50 is the glycine concentration at half-maximal current responses, and nHill is the Hill coefficient. Currents from each individual cell were normalized to the maximum response at saturating glycine concentrations. Significance of differences between EC50 values were determined using one-way ANOVA with p ≤ 0.05 (*) and p ≤ 0.01 (**) taken as significant. In all experiments, EC50 values were determined for each individual cell from a non-linear fit of dose response data to the logistic equation. An unweighted average ± standard error (SEM) was calculated from all individual EC50 values, without considering the fitting errors.
(§3) For time course analysis, a series of EC50 data was recorded from each cell. The first concentration-response curve, defined as t = 0, was recorded immediately after establishing the whole-cell configuration and positioning the cell in front of the delivery tube. […] Further recordings were made at t = 3 min, t = 6 min and t = 10 min (not attained with all cells). Time-independent recordings were taken at t = 0, and values of EC50 and Imax in the presence of PKA- or PKC modulators were normalized to control (no modulator). For time course analysis, responses were normalized to the control value at t = 0. Patch-clamp experiments were carried out on different dates and using different batches of HEK 293 cells. Since control EC50 values varied between different days of plating and between batches of cells, measurements with kinase modulators were always compared to control measurements recorded on the same day and from the same batch of cells.

[4] = system: Igly; parameters: method as in Min et al., 1996; conditions: ref Min et al., 1996; cited from earlier work
[5] = system: nAChR; parameters: method as in Wagoner and Pallotta, 1988; conditions: cAMP-independent; ref Wagoner and Pallotta, 1988; cited from earlier work
[6] = system: GlyR α1-β; experiment: Receptor internalization assay (pre-labeled GlyRs, confocal microscopy) in HEK293 cells; assay type: cell-based, human; conditions: 200 nM modulator, 15 min, 37°C; untreated cells 1.7 ± 0.4 dots/cell; ± SEM
Description: To stain internalized GlyRs, GlyR α1 was cotransfected with GlyR β into HEK293 cells grown on glass cover slips. Internalization experiments were performed 24 h post-transfection. Live cells co-expressing GlyR α1-β receptors were labeled with the α1-specific monoclonal antibody Mab2b (1:500 in Earle’s minimal essential medium for 1 h at 4°C). Earle’s minimal essential medium was supplemented with 10% fetal calf serum, […] GlutaMAX, 100 mM sodium pyruvate, and 50 U/ml penicillin/streptomycin (Thermo Fisher Scientific, Waltham, MA, USA). Mab2b was purchased from Synaptic Systems, Göttingen, Germany. Following three washing steps in phosphate-buffered saline (PBS, pH 7.4), cells were incubated with goat-anti-mouse-Cy3 secondary antibody again for 1 h at 4°C (dilution of secondary antibody 1:500 in Earle’s minimal essential medium, Dianova, Hamburg Germany). Glass cover slips with pre-labeled GlyRs were transferred into a 24-well plate containing 500 μl of Earle’s minimal essential medium with PKA and PKC modulators (200 nM final concentration each; Forskolin, H-89, PMA, Staurosporine aglycon, all from Sigma-Aldrich Chemie GmbH, Munich, Germany). Cells were incubated with modulators for 15 min to allow receptor internalization. Time point zero (0 min) was taken as a negative internalization control to ensure health of HEK293 cells (pre-labeling of GlyRs at 4°C inhibits internalization). Following incubation with PKA and PKC modulators, cells were stained with a second secondary antibody (donkey-anti-goat-Dyelight488, 1:250 in Earle’s minimal essential medium, Dianova, Hamburg, Germany) for 30 min at 4°C to label receptor retained at the cellular surface. Cells were fixed with 4% paraformaldehyde, 4% sucrose in PBS for 15 min at 4°C, washed three times in PBS and stained with 4′,6-diamidino-2-phenylindole (DAPI, Thermo Fisher Scientific, Waltham, MA, USA) to label the cell nuclei for 5 min at 4°C (1:5000 in PBS). Coverslips were washed again with PBS and Aqua Dest and mounted on glass slides using mowiol.
The images were obtained using an inverted Olympus IX81 microscope equipped with an Olympus FV1000 confocal laser scanning system, a FVD10 SPD spectral detector and diode lasers of 495 nm (Alexa488) and 550 nm (Cy3; Olympus, Tokyo, Japan), and an Olympus UPLSAPO 60× (oil, numerical aperture: 1.35) objective. Adobe Photoshop (Adobe, San Jose, CA, USA) or ImageJ (1.51)/Fiji^1 were used for image analysis.

[7] = system: GlyRs; parameters: method as in Salceda and Aguirre-Ramirez, 2005; conditions: 10 μM Forskolin; ref Salceda and Aguirre-Ramirez, 2005; cited from earlier work
[8] = system: human heteromeric α1-β GlyRs; experiment: Whole-cell patch-clamp of glycine induced currents, modulators in the intracellular buffer, HEK293 cells expressing GlyR α1-β; assay type: cell-based; conditions: for desensitization of glycine induced currents / effect on EC50 compared to control / Fraction of desensitizing cells / Imax: 0.5 μM modulator in intracellular buffer; for Fraction of desensitizing cells / Imax: mean ± SEM
Description: as §1, §2, §3

[9] = system: glycine activated chloride currents; parameters: method as in Ren et al., 1998; conditions: added to the pipette solution; ref Ren et al., 1998; cited from earlier work
[10] = system: GlyR; parameters: method as in Vaello et al., 1994; conditions: ref Vaello et al., 1994; cited from earlier work
[11] = system: GABA- and Gly-gated currents; parameters: method as in Machu et al., 2006; conditions: oocytes; ref Machu et al., 2006; cited from earlier work
[12] = system: GABA- and Gly-gated currents; parameters: method as in Machu et al., 2006; conditions: HEK293 cells, ref Machu et al., 2006, cited from earlier work
[13] = system: glycine currents; parameters: method as in Tapia et al., 1997; conditions: ref Tapia et al., 1997; cited from earlier work
[14] = system: GlyRα1; parameters: method as in Huang et al., 2007; conditions: ref Huang et al., 2007; cited from earlier work
[15] = system: HEK293 cells; experiment: Tolerance of HEK293 cells to intracellular kinase modulators during patch-clamp; conditions: intracellular concentration raised to 1 μM
Description: Whole-cell recording experiments were performed using a HEKA EPC10 amplifier (HEKA Electronics, Lambrecht, Germany) controlled by Pulse software (HEKA). Recording pipettes were pulled from borosilicate glass (World Precision Instruments, Berlin, Germany) using a Sutter P-97 horizontal puller (Sutter, Novato, CA, USA). […] Series resistance, as well as slow and fast capacitance were compensated using the EPC10 circuitry. The different protein kinase modulators were dissolved in intracellular buffer at a concentration of 0.5 μM. For studies of concentration- and time-dependence, kinase modulators were used at concentrations of 0.1 μM and 0.25 μM. Current responses were measured at room temperature (21–23°C) at a holding potential of −50 mV. Solutions were applied using an Octaflow system (NPI electronics, Tamm, Germany), where cells were bathed in a laminar flow of buffer, giving a time resolution for solution exchange and re-equilibration of about 100 ms. The external buffer consisted of 135 mM NaCl, 5.5 mM KCl, 2 mM CaCl2, 1.0 mM MgCl2 and 10 mM Hepes (pH adjusted to 7.4 with NaOH); the internal buffer was 140 mM CsCl, 1.0 mM CaCl2, 2.0 mM MgCl2, 5.0 mM EGTA and 10 mM Hepes (pH adjusted to 7.2 with CsOH).

SMILES: C=C[C@@]1(C)CC(=O)[C@@H]2[C@@]3(C)CCCC(C)(C)[C@@H]3[C@H](O)[C@H](OC(C)=O)[C@@]2(C)O1 [1,9-dideoxy Forskolin]
- effect on desensitization of whole cell responses [1]: accelerates the desensitization effectively

SMILES: CCCCCCCCCCCCCC(=O)O[C@@H]1[C@@H](C)[C@@]2(O)[C@@H](C=C(CO)C[C@@]3(O)C(=O)C(C)=C[C@@H]23)[C@@H]2C(C)(C)[C@]12OC(C)=O [4-alpha-PMA]
- effect on glycine currents [2]: did not affect the glycine currents

SMILES: CCCCCCCCCCCCCC(=O)O[C@@H]1[C@@H](C)[C@@]2(O)[C@@H](C=C(CO)C[C@]3(O)C(=O)C(C)=C[C@@H]23)[C@@H]2C(C)(C)[C@]12OC(C)=O [4-beta-PMA]
- effect on glycine currents [2]: Reduced responses

SMILES: C=C[C@@]1(C)CC(=O)[C@]2(O)[C@@]3(C)[C@@H](O)CCC(C)(C)[C@@H]3[C@H](O)[C@H](OC(C)=O)[C@@]2(C)O1 [Forskolin]
- change of Imax at t = 10 min normalized to t = 0 [3]: significantly reduced
- effect on EC50 [3]: increased EC50
- desensitization of glycine induced currents ([3]; GlyR α1): faster desensitization
- effect on EC50 compared to control ([3]; GlyR α1): significant increase
- Fraction of desensitizing cells ([3]; GlyR α1): 0.57 ± 0.12
- Imax ([3]; GlyR α1): 1.20 ± 0.24 nA
- effect on Igly [4]: inhibited Igly potentiation
- effect on desensitization of the nAChR [5]: enhancement of desensitization
- internalized receptor [6]: 6.9 ± 1.5 dots/cell
- reduction of specific binding of both radioligands [7]: 30%–90%
- desensitization of glycine induced currents [8]: faster desensitization
- effect on EC50 compared to control [8]: significant increase
- Fraction of desensitizing cells [8]: 0.52 ± 0.07
- Imax [8]: 0.99 ± 0.24 nA
- effect on desensitization of whole cell responses [1]: markedly accelerates desensitization

SMILES: O=S(=O)(NCCNC/C=C/c1ccc(Br)cc1)c1cccc2cnccc12 [H-89]
- change of Imax at t = 10 min normalized to t = 0 [3]: not significant
- effect on EC50 [3]: opposite effect
- desensitization of glycine induced currents ([3]; GlyR α1): non-desensitizing current responses
- effect on EC50 compared to control ([3]; GlyR α1): decreased EC50 values
- Fraction of desensitizing cells ([3]; GlyR α1): 0.07 ± 0.03
- Imax ([3]; GlyR α1): 1.91 ± 0.57 nA
- effect on Igly [4]: potentiation of Igly
- internalized receptor [6]: 4.0 ± 1.0 dots/cell
- effect on ATP induced run-up of the glycine current [9]: blocked
- desensitization of glycine induced currents [8]: non-desensitizing current responses
- effect on EC50 compared to control [8]: decreased EC50 values
- Fraction of desensitizing cells [8]: 0.19 ± 0.09
- Imax [8]: 1.37 ± 0.28 nA

SMILES: CCCCCCCCCCCCCC(=O)O[C@@H]1[C@@H](C)[C@@]2(O)[C@@H](C=C(CO)C[C@]3(O)C(=O)C(C)=C[C@@H]23)[C@@H]2C(C)(C)[C@]12OC(C)=O [PMA, phorbol-12-myristate-13-acetate]
- change of Imax at t = 10 min normalized to t = 0 [3]: significantly reduced
- effect on EC50 [3]: increased EC50
- desensitization of glycine induced currents ([3]; GlyR α1): no effect on receptor desensitization
- effect on EC50 compared to control ([3]; GlyR α1): increased
- Fraction of desensitizing cells ([3]; GlyR α1): 0.05 ± 0.05
- Imax ([3]; GlyR α1): 2.30 ± 0.74 nA
- effect on glycinergic currents [10]: decreased glycinergic currents
- internalized receptor [6]: 3.9 ± 0.7 dots/cell
- peak amplitude of GABA- and Gly-gated currents [11]: large, reproducible decrease
- modulation of receptors ([12]; 35°C): decreased the function
- modulation of receptors ([12]; room temperature): ineffective
- effect on glycine currents [13]: reduce the amplitude of glycine currents
- desensitization of glycine induced currents [8]: no effect on receptor desensitization
- effect on EC50 compared to control [8]: not statistically significant
- Fraction of desensitizing cells [8]: 0.27 ± 0.08
- Imax [8]: 1.26 ± 0.27 nA
- start of receptor internalization [14]: ≤ 15 min

SMILES: O=C1NCc2c1c1c3ccccc3[nH]c1c1[nH]c3ccccc3c21 [Staurosporine aglycon]
- cell survival [15]: cells did not survive
- change of Imax at t = 10 min normalized to t = 0 [3]: not significant
- effect on EC50 [3]: opposite effect
- desensitization of glycine induced currents ([3]; GlyR α1): slow or no desensitization
- effect on EC50 compared to control ([3]; GlyR α1): decrease of half maximum values
- Fraction of desensitizing cells ([3]; GlyR α1): 0.10 ± 0.05
- Imax ([3]; GlyR α1): 1.70 ± 0.29 nA
- internalized receptor [6]: 2.3 ± 0.5 dots/cell
- effect of 4-beta-PMA in the presence of Staurosporine aglycon [2]: the effect was inhibited
- desensitization of glycine induced currents [8]: slow or no desensitization
- effect on EC50 compared to control [8]: decrease of half maximum values
- Fraction of desensitizing cells [8]: 0.06 ± 0.04
- Imax [8]: 1.11 ± 0.20 nA

SMILES: NCC(=O)O [glycine]
- EC50 ([3]; GlyR α1, absence of modulators, n = 11): 37.4 ± 3.7 µM
- EC50 ([8]; absence of modulators, n = 8): 45.4 ± 6 µM

— paper PMC5961436, “PKA and PKC Modulators Affect Ion Channel Function and Internalization of Recombinant Alpha1 and Alpha1-Beta Glycine Receptors” (Frontiers in Molecular Neuroscience, 2018)
